{"source": "patent US10760110B2", "about": "“Antibiotic testing and screening system” (priority 2017, dated 2020)", "key": {"[1]": {"system": "K. pneumoniae NVT1001 harbouring the pACYC177 plasmid with blaOXA-48", "experiment": "Mouse peritonitis-sepsis infection model", "format": "in vivo, Klebsiella pneumoniae", "experimental": "Pathogen-free 6- to 8-week-old male BALB/c mice were obtained from the National Laboratory Animal Center (Taiwan) and maintained in the pathogen-free vivarium of the Laboratory Animal Center of National Defense Medical Center (Taiwan). K. pneumoniae NVT1001 harbouring the pACYC177 plasmid with blaOXA-48 was cultured overnight at 37° C. in BHI broth and then diluted (1:100) in fresh BHI broth. The culture was incubated until the mid-exponential growth phase, and the cells were then washed once, resuspended in 0.85% sterile saline, and adjusted to the desired concentrations according to the OD600 value. The concentrations were verified by plating the cells to determine viable counts. […] Meanwhile, antibiotic doses were prepared in 0.85% sterile saline. At 1 hour post-inoculation, antibiotic or 0.85% sterile saline alone was administered as a single subcutaneous injection with a volume of 0.3 mL per dose. The mice were then monitored daily for 7 days to measure survival."}, "[2]": {"system": "clinical K. pneumoniae isolate producing the carbapenemase OXA-48", "conditions": "previous study; cited from earlier work"}, "[3]": {"system": "clinical K. pneumoniae isolate producing the carbapenemase OXA-48", "conditions": "previous study; cited from earlier work", "remark": "listed apart in the source"}}, "data": [{"molecule": "CO/N=C(\\C(=O)N[C@@H]1C(=O)N2C(C(=O)O)=C(COC(C)=O)CS[C@H]12)c1csc(N)n1", "note": "[Cefotaxime]", "values": [{"measurement": "survival of mice", "setting": "[1]; BALB/c mice, 30 mg/kg", "result": "no mice survived"}]}, {"molecule": "CC(C)(O/N=C(\\C(=O)N[C@@H]1C(=O)N2C(C(=O)[O-])=C(C[n+]3ccccc3)CS[C@H]12)c1csc(N)n1)C(=O)O", "note": "[Ceftazidime]", "values": [{"measurement": "ED50 (comparison)", "setting": "[2]", "result": "lower than that of cefotaxime"}, {"measurement": "in vivo efficacy (comparison)", "setting": "[1]; BALB/c mice", "result": "higher than that of cefotaxime"}, {"measurement": "ED50", "setting": "[1]; Klebsiella pneumoniae, sc, read-out: estimated ED50", "result": 30, "unit": "mg/kg"}, {"measurement": "MIC relative to that of cefotaxime", "setting": "[3]", "result": 4, "unit": "fold lower"}]}]}
